Entries after “also recorded” stand apart in the source; their conditions may differ.
Key:
[1] = system: DH10B cells co-expressing MaFRSA; assay: In vivo incorporation at position 200 of sfGFP, MaFRSA (intact mass, GluC LC-MS/MS); assay type: cell-based, E. coli
[2] = system: MaPylRS; assay: RNAse A/LC-HRMS assay of Ma-tRNA^Pyl acylation by MaPylRS; assay type: biochemical, Methanomethylophilus alvus; details: some statements also rest on intact tRNA analysis
[3] = system: MaFRSA (N166A, V168A); assay: RNAse A/LC-HRMS assay of Ma-tRNA^Pyl acylation by MaFRSA; assay type: biochemical, Methanomethylophilus alvus; details: RNAse A/LC-HRMS and intact tRNA analysis
[4] = system: MaFRS1 (N166A, V168L); assay: RNAse A/LC-HRMS assay of Ma-tRNA^Pyl acylation by MaFRS1; assay type: biochemical, Methanomethylophilus alvus; details: some statements also rest on intact tRNA analysis
[5] = system: MaFRS2 (N166A, V168K); assay: RNAse A/LC-HRMS assay of Ma-tRNA^Pyl acylation by MaFRS2; assay type: biochemical, Methanomethylophilus alvus; details: some statements also rest on intact tRNA analysis
[6] = system: MaFRS1 (N166A, V168L); assay: Intact tRNA mass spectrometry: acylation of Ma-tRNA^Pyl by MaFRS1; assay type: biochemical, Methanomethylophilus alvus; details: MaFRS1 2.5 μM, Ma-tRNA^Pyl 25 μM, 37° C., 2 h; average of 3 technical replicates
[7] = system: MaFRS2 (N166A, V168K); assay: Intact tRNA mass spectrometry: acylation of Ma-tRNA^Pyl by MaFRS2; assay type: biochemical, Methanomethylophilus alvus; details: MaFRS2 2.5 μM, Ma-tRNA^Pyl 25 μM, 37° C., 2 h; average of 3 technical replicates
[8] = system: MaFRSA (N166A, V168A); assay: Intact tRNA mass spectrometry: acylation of Ma-tRNA^Pyl by MaFRSA; assay type: biochemical, Methanomethylophilus alvus; details: for Yield of diacylated Ma-tRNA^Pyl / Yield of monoacylated Ma-tRNA^Pyl: MaFRSA 2.5 μM, Ma-tRNA^Pyl 25 μM, 37° C., 2 h, average of 3 technical replicates
[9] = system: MaFRSA; assay: Malachite green assay to monitor adenylation by MaFRSA; assay type: biochemical, Methanomethylophilus alvus
Method: Malachite green assay to monitor adenylation. Enzymatic adenylation reactions were monitored using malachite green using a previous protocol with modifications^52. Each adenylation reaction (60 μL) contained the following components: 200 mM HEPES-K (pH 7.5), 4 mM DTT, 10 mM MgCl2, 0.2 mM ATP, 0-10 mM substrate, 4 U/mL E. coli inorganic pyrophosphatase (NEB), and 2.5 μM enzyme (MaFRS1 or MaFRSA). Adenylation reactions were incubated at 37° C. in a dry-air incubator. Aliquots (10 μL) were withdrawn after 0, 5, 10, 20, and 30 min and quenched upon addition to an equal volume of 20 mM EDTA (pH 8.0) on ice. Once all aliquots were withdrawn, 80 μL of Malachite Green Solution (Echelon Biosciences) was added to each aliquot and the mixture incubated at RT for 30 min. After shaking for 30 sec to remove bubbles, the absorbance at 620 nm was measured on a Synergy HTX plate reader (BioTek). The absorbance was then converted to phosphate concentration using a phosphate standard curve (0-100 μM) and plotted over time to determine turnover numbers.

[10] = samples vi-vii, DH10B, defined media lacking glutamate, 1 mM substrate

Row | SMILES | Substrate activity for MaFRSA (in words) [3] | Substrate activity for MaFRS1 (in words) [4] | Substrate activity for MaFRS2 (in words) [5] | Yield of diacylated Ma-tRNA^Pyl [6] | Yield of monoacylated Ma-tRNA^Pyl [6] | Yield of diacylated Ma-tRNA^Pyl [7] | Yield of monoacylated Ma-tRNA^Pyl [7] | Yield of diacylated Ma-tRNA^Pyl [8] | Yield of monoacylated Ma-tRNA^Pyl [8] | other results
1 | N[C@@H](Cc1cccc(C(F)(F)F)c1)C(=O)O [Sample 20] | – | – | – | – | – | – | – | – | – | sfGFP containing variant 20 at position 200 [1, 10]: 97.14%
2 | CC(C)(C)OC(=O)NCCCC[C@@H](N)C(=O)O [Substrate 5, N^ε-(tert-butoxycarbonyl)-D-lysine] | – | – | – | – | – | – | – | – | – | Substrate activity for MaPylRS (in words) [2]: No reactivity was detected
3 | N[C@@H](Cc1ccccc1)C(=O)O [Substrate 7, L-phenylalanine, reference compound] | low activity | – | – | – | – | – | – | – | – | –
4 | N[C@H](Cc1ccccc1)C(=O)O [Substrate 11, D-phenylalanine] | – | no reactivity was detected | no reactivity was detected | – | – | – | – | – | – | –
5 | CC(C)(C)OC(=O)NCCCCC(C(=O)O)C(=O)O [Substrate 16] | – | – | – | – | – | – | – | – | – | Substrate activity for MaPylRS (in words) [2]: accepts; also recorded: measurable substrate
6 | Cc1cccc(CC(C(=O)O)C(=O)O)c1 [Substrate 17] | high activity | accept; also recorded: excellent substrates | accept; also recorded: excellent substrates | 3.64% | 49.8% | 0% | 52.0% | 1.54% | 9.48% | –
7 | O=C(O)C(Cc1cccc(C(F)(F)F)c1)C(=O)O [Substrate 18] | highest activity | accept; also recorded: excellent substrates | accept; also recorded: excellent substrates | 9.24% | 59.3% | 0% | 26.1% | 0% | 31.4% | Acylation product in competition of L-Phe 7 and 18 ([8]; MaFRSA incubated with equal concentration (10 mM) of L-Phe 7 and meta-CF3-2-BMA 18): Only the acylation product of 18 and Ma-tRNA^Pyl is observed; also recorded: only the malonyl product (18-tRNA^Pyl) is observed; Rate of adenylation as % of the rate observed for meta-CF3-L-Phe [9]: 36%
8 | O=C(O)C(Cc1cccc(Br)c1)C(=O)O [Substrate 19] | high activity | accept; also recorded: excellent substrates | accept; also recorded: excellent substrates | 10.8% | 37.4% | 0% | 32.7% | 0% | 22.3% | –
9 | N[C@@H](Cc1cccc(C(F)(F)F)c1)C(=O)O [Substrate 20] | – | – | – | – | – | – | – | – | – | Intact mass of expressed sfGFP variant (in words) ([1]; E. coli DH10B, 1 mM monomer, sfGFP-200TAG): mass corresponded to the presence of a single trifluoromethyl phenylalanine side chain; sfGFP containing variant 1 at position 200 [1, 10]: 0.00%; sfGFP containing variant 2 at position 200 [1, 10]: 0.00%; sfGFP containing variant 21 at position 200 [1, 10]: 0.63%; sfGFP containing variant A at position 200 [1, 10]: 0.14%; sfGFP containing variant F at position 200 [1, 10]: 0.15%; sfGFP containing variant K at position 200 [1, 10]: 0.14%; sfGFP containing variant Q at position 200 [1, 10]: 0.62%; sfGFP containing variant W at position 200 [1, 10]: 1.02%; sfGFP containing variant Y at position 200 [1, 10]: 0.15%
